Each structure is given as a SMILES string.

Our source for the IC50 values is patent publication US9133134B2, “Inhibitors of bruton's tyrosine kinase” (Pharmacyclics, Inc., priority 2012, dated 2015).

For the assay, the target named is human BTK (Homo sapiens (Human), UniProt Q06187). The assay is described as follows: Btk enzymatic kinase assay (electrophoretic mobility shift assay). It is filed as biochemical. Conditions: recombinant full-length human BTK 1 nM, ATP 16 μM, peptide substrate 1 μM, one hour incubation. As to the method:
Kinase activity is measured in vitro using electrophoretic mobility shift assay. The kinase reactions are assembled in a total volume of 25 μL in 384 well plates. […] The reaction is incubated for one hour and is quenched by the addition of 45 μL of termination buffer (100 mM HEPES, pH7.5, 0.01% Triton X-100, 30 mM EDTA). The terminated reactions are analyzed using 12 channel LabChip® 3000 microfluidic detection instrument (Caliper Life Sciences). […] Change in the relative fluorescence intensity of the substrate and product peaks is the parameter measured, reflecting enzyme activity. In the presence of an inhibitor, the ratio between product and substrate is altered: the signal of the product decreases, while the signal of the substrate increases.
Activity in each sample is determined as the product to sum ratio (PSR): P/(S+P), where P is the peak height of the product peptide and S is the peak height of the substrate peptide. For each compound, enzyme activity is measured at various concentrations (12 concentrations of compound spaced by 3× dilution intervals). […] Percent inhibition (Pinh) is determined using following equation: […]
The IC50 values of inhibitors are determined by 4 parameter sigmoidal dose-response model fitting of the inhibition curves (Pinh versus inhibitor concentration) using XLfit 4 software.

Chain of human BTK (Q06187 whole entry): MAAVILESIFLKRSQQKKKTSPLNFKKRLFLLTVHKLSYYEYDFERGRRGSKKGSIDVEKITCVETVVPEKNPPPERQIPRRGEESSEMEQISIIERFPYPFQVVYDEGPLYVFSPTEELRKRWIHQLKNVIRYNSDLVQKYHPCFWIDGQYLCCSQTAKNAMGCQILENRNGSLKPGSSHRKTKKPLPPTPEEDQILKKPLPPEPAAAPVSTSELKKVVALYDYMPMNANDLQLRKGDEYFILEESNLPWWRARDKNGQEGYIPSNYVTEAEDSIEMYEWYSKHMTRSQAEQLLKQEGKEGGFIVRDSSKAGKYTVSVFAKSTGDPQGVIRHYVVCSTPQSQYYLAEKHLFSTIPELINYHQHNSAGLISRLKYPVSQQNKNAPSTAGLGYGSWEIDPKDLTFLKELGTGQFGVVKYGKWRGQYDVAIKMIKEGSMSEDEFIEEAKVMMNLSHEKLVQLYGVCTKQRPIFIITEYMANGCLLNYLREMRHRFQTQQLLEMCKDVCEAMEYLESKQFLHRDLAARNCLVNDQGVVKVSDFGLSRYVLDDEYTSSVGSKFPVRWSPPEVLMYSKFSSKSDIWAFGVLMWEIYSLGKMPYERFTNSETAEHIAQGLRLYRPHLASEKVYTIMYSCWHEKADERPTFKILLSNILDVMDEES

Regarding `COCCOc1ccc(Nc2ncc(F)c(Nc3cccc(NC(=O)C(O)CO)c3)n2)cc1` (stereo not shown) [Compound 4, N-(3-(5-fluoro-2-(4-(2-methoxyethoxy)phenylamino)pyrimidin-4-ylamino)phenyl)-2,3-dihydroxypropanamide], the concentration for half-maximal inhibition (IC50) (commonly the midpoint of a concentration-inhibition curve) was less than 0.5 µM.
